Measurements taken from PubChem BioAssay (NCI).
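Test compounds were applied to cells in 96-well plates for 48 hours at 5 doses. TGI denotes the concentration required for complete inhibition of growth.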

Key:
Test in all cases: growth of human tumour cells (NCI), 48 h
[1] = test system: CAKI-1 renal
[2] = test system: OVCAR-4 ovarian
[3] = test system: SK-MEL-5 melanoma
[4] = test system: RXF 393 renal
[5] = test system: HOP-92 NSCLC
[6] = test system: NCI-H226 lung
[7] = test system: TK-10 renal
[8] = test system: NCI-H23 lung
[9] = test system: HCT-15 colon
[10] = test system: SF-295 CNS
[11] = test system: M14 melanoma
[12] = test system: HT29 colon
[13] = test system: IGROV1 ovarian
[14] = test system: OVCAR-5 ovarian
[15] = test system: OVCAR-3 ovarian
[16] = test system: SNB-19 CNS
[17] = test system: A549 NSCLC
[18] = test system: NCI/ADR-RES ovarian
[19] = test system: KM12 colon
[20] = test system: COLO 205 colon
[21] = test system: MDA-N
[22] = test system: SN12C renal
[23] = test system: DU-145 prostate
[24] = test system: EKVX NSCLC
[25] = test system: U251 CNS
[26] = test system: SW-620 colon
[27] = test system: MDA-MB-435
[28] = test system: SK-MEL-28 melanoma
[29] = test system: SF-268 CNS
[30] = test system: HCT-116 colon
[31] = test system: SF-539 CNS
[32] = test system: OVCAR-8 ovarian
[33] = test system: ACHN renal
[34] = test system: MDA-MB-231 breast
[35] = test system: PC-3 prostate
[36] = test system: SNB-75 CNS

Measured: TGI

CCC1=[N+]([O-])C(C)(C)NC1(C)C
> 10 µM: all assays above
